The values below come from article PMC11551755, “Structure-based discovery of first inhibitors targeting the helicase activity of human PIF1” (Nucleic Acids Research, 2024).

In this test the target is T1, hPIF1HD V258A (Homo sapiens, UniProt Q9H611, V258A).
T1 construct: The human PIF1 helicase domain and mutants (hPIF1HD, residues 206–620); hexa-histidine tag (N, cleaved yes); made in house; host or cells: ArcticExpress BL21(DE3) E. coli (Agilent Technologies)
T1 sequence (Q9H611 206-620 V258A): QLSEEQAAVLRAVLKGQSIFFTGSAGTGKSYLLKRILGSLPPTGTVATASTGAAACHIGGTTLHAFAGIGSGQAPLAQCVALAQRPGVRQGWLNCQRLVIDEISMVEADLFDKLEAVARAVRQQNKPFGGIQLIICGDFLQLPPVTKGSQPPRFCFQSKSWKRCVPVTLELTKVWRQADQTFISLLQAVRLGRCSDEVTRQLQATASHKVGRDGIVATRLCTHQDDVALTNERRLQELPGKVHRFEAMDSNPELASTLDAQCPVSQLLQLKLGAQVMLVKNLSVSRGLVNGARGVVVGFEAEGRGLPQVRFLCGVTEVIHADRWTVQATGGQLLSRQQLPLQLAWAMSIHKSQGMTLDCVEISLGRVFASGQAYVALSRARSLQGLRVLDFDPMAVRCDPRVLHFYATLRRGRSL
The test is described as follows: ssDNA d(T)55 binding assay (EMSA), hPIF1HD V258A variant. The following applies: 0.25 nM d(T)55, 2 nM protein, 5 mM AMP-PNP, 0.0078–2 mM compound; read-out: IC50 for inhibition of ssDNA binding, V258A. The method, then:
DNA binding of hPIF1HD was assayed using a ^32P-5′ end-labelled oligo d(T)55 substrate (0.25 nM), under the same buffer conditions described for helicase assays, but with AMP-PNP instead of ATP. Reaction products were resolved on 5% poly-acrylamide gels (29:1 acrylamide:bis-acrylamide) using 0.25× TBE running buffer ([19],[28]). Gels were processed and reaction products quantified by phosphorimaging and IC50 values determined as described above.
In hPIF1HD/AMP-PNP/1 there are no direct hydrogen bonds between amino acid side chains and 1, however, Val 258 from domain 1A is making van der Waals interaction (<3.8 Å) with the amide group at one end of the molecule (Figure 1). From the structural data, we reasoned that substitution of the Val 258 with alanine (V258A) would increase the size of the binding pocket and its accessibility to ligand, while substitution with leucine (V258L) would decrease pocket size and possibly instigate a clash with Lys 556, disrupting interactions with compound 1 or derivatives. Accordingly, we purified hPIF1HD V258A and V258L variant forms and analysed ssDNA d(T)55 binding in the presence of SMIs, using EMSA as above.
Supplementary Figure 12. hPIF1HD variants V258A and V258L ssDNA binding IC50 determination by EMSA with selected SMIs. All binding reactions were assembled under helicase reaction conditions but with 0.25 nM radiolabelled oligo d(T)55, and 5 mM AMP-PNP. (A) DNA binding activity of wild type and mutant proteins was assessed by EMSA without inhibitors. […] 1D: Wild type (WT), V258A and V258L, not determined. 2: WT, 224 ± […]; V258A, 103 ± 31 µM; V258L, 304 ± 88 µM. 5: WT, 198 ± 54 µM; V258A, 79.2 ± 27 µM; V258L, 414 ± 45 µM. 6: WT, 722 ± 194 µM; V258A, 295 ± 116 µM; V258L, 1010 ± 282 µM. 10: WT, 224 ±59 µM; V258A, 152 ± 42 µM; V258L, 378 ± 99 µM. 11: WT, 284 ± 110 µM; V258A, 151 ± 51 µM; V258L, 551 ± 215 µM.
Regarding `CC(=O)c1ccc(-c2csc(N)n2)cc1` [Compound 2], the half-maximal inhibitory concentration (IC50) is 103 ± 31 µM.
Turning to `N#Cc1ccc(-c2csc(N)n2)cc1` [Compound 5], the IC50 amounted to 79.2 ± 27 µM.
The same measure for `Nc1nc(-c2ccc(C(=O)c3ccccc3)cc2)cs1` [Compound 6]: 295 ± 116 µM.
With `CC(=O)Nc1ccc(-c2csc(N)n2)cc1-c1ccc(C)cc1` [Compound 10] the figure was 152 ± 42 µM; with `CC(=O)Nc1ccc(-c2csc(N)n2)cc1C1=CCNCC1` [Compound 11], 151 ± 51 µM.

One may read the IC50 as the midpoint of a concentration-inhibition curve.
